What was measured:
patients with COPD [1] = experiment: Pulmonary function tests (trough and peak FEV1), tetomilast with Advair Diskus 250/50, parallel group study (Example 2); type: in vivo, human; design: Estimated Treatment Effect, change from baseline in trough FEV1 (tetomilast versus placebo) / Estimated Treatment Effect in Baseline Mean trough FEV1, Day 7 predose (tetomilast versus placebo) / Estimated Treatment Effect, change from baseline in peak FEV1 (tetomilast versus placebo): unit not given here
Method: Pulmonary function tests were conducted throughout the study to monitor the subjects' respiratory status. Flow volume curves were collected via spirometry. Combivent® (Boehringer Ingleheim Pharmaceuticals, Inc., Ridgefield Conn.), which was used for short-acting rescues as needed throughout the studies described below, was withheld for 6 hours prior to any spirometric testing. Spirometry testing was performed at screening, baseline (Day 0), and at specific times during the treatment period. Each subject could have up to 5 spirometric readings at any study time point. Spirometric readings were performed using equipment from the central provider, Quantum Research, Inc. (Louisville, Colo.). All spirometry readings were recorded and sent to Quantum Research, Inc. for analysis
For the spirometric readings, the best effort was reported as follows. The highest acceptable forced expiratory volume in one second (FEV1) value was selected as the “best” of the given test session. If two or more FEV1 values were tied as highest, the sum of FEV1 and forced vital capacity (FVC) for those efforts was used. If both conditions were equal between the two efforts, the values reported were taken from the effort that occurred first, chronologically, based on date and time of the effort.
This study was a multicenter, randomized, double-blind, placebo-controlled, parallel group, outpatient, phase 1B study of Advair Diskus® 250/50 (fluticasone propionate and salmeterol xinafoate, GlaxoSmithKline, Research Triangle Park, N.C.) administered concomitantly with oral placebo or 50 mg tetomilast (2×25 mg tablets) in patients with COPD. All patients underwent a minimum 28-day washout from short-acting inhaled corticosteroids, long-acting bronchodialators, and/or continuous oxygen therapy (>16 hours per day), and a minimum 7-day washout from beta2-agonists and/or oral theophylline. Patients were randomly assigned to one of the two treatment arms (oral tetomilast 50 mg or placebo) prior to dosing on Day 1, and were distributed 1:1 between the two groups according to a computer-generated randomization code provided by the Otsuka Maryland Research Institute (OMRI) Biostatistics Department. Randomization was performed using a central IVRS system and was centralized across study centers.
Subjects received 7 days of treatment with tetomilast 50 mg or placebo oral dose in treatment period 1. During treatment period 2, Days 8 through 35, concomitant inhaled Advair Diskus® 250/50 was added to the treatment regimen.
Subjects were instructed to take their oral study medication (tetomilast 50 mg or placebo) QD with 8 ounces of water immediately after breakfast for all study treatment days. Subjects assigned to the placebo group received two placebo tablets QD. Subjects assigned to the tetomilast group received 2×25 mg tetomilast tablets QD. On study Days 1-7, 14, 21, 28, and 35, subjects consumed their oral study medication (tetomilast 50 mg or placebo) at the clinic in the presence of the study staff.
The inhaled Advair Diskus® 250/50 was self-administered by subjects on all study days between Days 8 and 35, except for Days 14, 21, 28, and 35, when the medication was administered at the clinic in the presence of the study staff. Advair Diskus® 250/50 was administered twice daily (BID). The morning dose coincided with the timing of the oral dose (tetomilast 50 mg or placebo). The evening dose was taken 12 hours later. Dosing times were recorded in subject diaries.
Combivent® (Boehringer Ingleheim Pharmaceuticals, Inc., Ridgefield, Conn.) was provided by the sponsor for short-acting rescue use during the study. Combivent® was withheld for 6 hours prior to any PFTs. Combivent® was supplied as a metered-dose inhaler. Each actuation meters 21 μg of ipratropium bromide and 120 μg of albuterol sulfate from the valve and delivers […] of ipratropium bromide and 103 μg of albuterol sulfate (equivalent to 90 μg albuterol base) from the mouthpiece. […]

patients with COPD [2] = experiment: Pharmacodynamic and safety assessments (ECG, vital signs, serum potassium, adverse events, laboratory), Example 2; type: in vivo, human
Method: Twelve-lead electrocardiograms (ECGs) were conducted after the subject had been resting and supine for ≧3 minutes. In addition to screening and pre-treatment baseline (Day 0) measurements, ECGs were also recorded at specific times during the treatment period. All 12-lead ECG monitors used for this study were calibrated and standardized. The ventricular rate, PR interval (the time elapsing between the beginning of the P wave and the beginning of the QRS interval in an electrocardiogram, corresponding to the electrical activity through the atria), QRS interval (the movement of electrical impulses through the ventricles), QT/QTc interval (the QT interval measures the time between the start of the Q wave and the end of the T wave in the heart's electrical cycle; QTc is a corrected QT interval, as determined by Fridericia's formula [QTcF] and Bazett's formula [QTcB]), and the overall ECG interpretation (normal or abnormal) were documented. Measurements were recorded prior to collection of any blood samples, where applicable. At least three original copies of each ECG (one each for the site, for the sponsor, and for the central ECG provider) were made. […]
Vital signs (heart rate and systolic blood pressure) were measured after the subject had been sitting for ≧3 minutes. […] Measurements were recorded prior to the collection of any blood samples, where applicable. […]

[3] = test system: guinea pig models of pulmonary disease; conditions: cited from earlier work
[4] = Baseline Day 1 predose, Day 7, before Advair Diskus
[5] = Baseline Day 1 predose, Day 14, both with Advair Diskus 250/50 BID
[6] = Baseline Day 1 predose, Day 21, both with Advair Diskus 250/50 BID
[7] = Baseline Day 1 predose, Day 28, both with Advair Diskus 250/50 BID
[8] = Baseline Day 1 predose, Day 35, both with Advair Diskus 250/50 BID

## CCOc1ccc(-c2nc(-c3cccc(C(=O)O)n3)cs2)cc1OCC [Tetomilast, 2-(3,4-diethoxyphenyl)-4-(2-carboxy-6-pyridyl)thiazole]
Patients with COPD [1]; Advair Diskus 250/50 with tetomilast versus Advair Diskus 250/50 alone, days 8 through 35
  effect on inhaled Advair Diskus 250/50 response (FEV1), exploratory repeated measures analysis: possible potentiation of the effect of inhaled fluticasone propionate plus salmeterol
Patients with COPD [1]; Baseline Day 1 predose, Day 1, before Advair Diskus
  Estimated Treatment Effect, change from baseline in peak FEV1 (tetomilast versus placebo): 0.08
Patients with COPD [1]; Baseline Day 1 predose, Day 2, before Advair Diskus
  Estimated Treatment Effect, change from baseline in trough FEV1 (tetomilast versus placebo): 0.11
Patients with COPD [1]; Baseline Day 1 predose, Day 3, before Advair Diskus
  Estimated Treatment Effect, change from baseline in trough FEV1 (tetomilast versus placebo): 0.07
Patients with COPD [1]; Baseline Day 1 predose, Day 4, before Advair Diskus
  Estimated Treatment Effect, change from baseline in trough FEV1 (tetomilast versus placebo): 0.12
Patients with COPD [1]; Baseline Day 1 predose, Day 5, before Advair Diskus
  Estimated Treatment Effect, change from baseline in trough FEV1 (tetomilast versus placebo): 0.13
Patients with COPD [1]; Baseline Day 1 predose, Day 6, before Advair Diskus
  Estimated Treatment Effect, change from baseline in trough FEV1 (tetomilast versus placebo): 0.11
Patients with COPD [1]; [4]
  Estimated Treatment Effect, change from baseline in peak FEV1 (tetomilast versus placebo): 0.23
  Estimated Treatment Effect, change from baseline in trough FEV1 (tetomilast versus placebo): 0.13
Patients with COPD [1]; [5]
  Estimated Treatment Effect, change from baseline in peak FEV1 (tetomilast versus placebo): 0.21
  Estimated Treatment Effect, change from baseline in trough FEV1 (tetomilast versus placebo): 0.16
Patients with COPD [1]; [6]
  Estimated Treatment Effect, change from baseline in peak FEV1 (tetomilast versus placebo): 0.30
  Estimated Treatment Effect, change from baseline in trough FEV1 (tetomilast versus placebo): 0.18
Patients with COPD [1]; [7]
  Estimated Treatment Effect, change from baseline in peak FEV1 (tetomilast versus placebo): 0.28
  Estimated Treatment Effect, change from baseline in trough FEV1 (tetomilast versus placebo): 0.21
Patients with COPD [1]; [8]
  Estimated Treatment Effect, change from baseline in peak FEV1 (tetomilast versus placebo): 0.21
  Estimated Treatment Effect, change from baseline in trough FEV1 (tetomilast versus placebo): 0.15
Patients with COPD [1]; Baseline Day 7 predose, Day 14, both with Advair Diskus 250/50 BID
  Estimated Treatment Effect, change from baseline in trough FEV1 (tetomilast versus placebo): 0.02
Patients with COPD [1]; Baseline Day 7 predose, Day 21, both with Advair Diskus 250/50 BID
  Estimated Treatment Effect, change from baseline in trough FEV1 (tetomilast versus placebo): 0.05
Patients with COPD [1]; Baseline Day 7 predose, Day 28, both with Advair Diskus 250/50 BID
  Estimated Treatment Effect, change from baseline in trough FEV1 (tetomilast versus placebo): 0.06
Patients with COPD [1]; Baseline Day 7 predose, Day 35, both with Advair Diskus 250/50 BID
  Estimated Treatment Effect, change from baseline in trough FEV1 (tetomilast versus placebo): 0.02
Patients with COPD [1]; Day 7 predose, before Advair Diskus
  Estimated Treatment Effect in Baseline Mean trough FEV1, Day 7 predose (tetomilast versus placebo): 0.38
Patients with COPD [1]; day-1 baseline, all time points through day-7 except day-3, and day-14 through day-35 (with Advair Diskus 250/50)
  Trough FEV1 compared with placebo: statistically significantly improved
Patients with COPD [1]; days 7, 21 and 28, approached statistical significance at day 14 and day 35
  peak and average FEV1 improvements compared with placebo: statistically significant
Patients with COPD [2]; oral tetomilast in combination with Advair Diskus 250/50
  changes in heart rate, systolic blood pressure, serum potassium, or QT interval versus placebo: No clinically meaningful changes
Patients with COPD [2]; oral tetomilast with inhaled Advair Diskus 250/50
  differences in adverse events, serum chemistry, hematology, or urinalysis versus placebo: no clinically meaningful differences
[3]
  airway resistance and peak expiration flow: improve
